We go through one molecule from paper PMC12320831, “Synthesis and Biological Evaluation of New Chalcogen Semicarbazone (S, Se) and Their Azole Derivatives against Chagas Disease” (Journal of Medicinal Chemistry, 2024).

By viability is commonly meant the share of living cells, or the viability signal relative to a control. A word on the CC50: it is the concentration at which the toxic effect on the cells reaches its halfway point. The term bioavailability denotes the share of a dose that reaches the circulation, judged against a reference dose that is usually intravenous. Higher therefore signals much systemic uptake. What is called Cmax is the peak of the concentration-time curve. The IC50 is the point on the concentration scale where inhibition reaches its midpoint.

Where “and” joins values, the source holds several entries; their conditions need not be identical. Equal entries are not always repeated. Where two headings read alike, the source gives them in different places.

A short description of series [1]: Host cell cytotoxicity (C2C12 viability). It counts as cell-based, Mouse. The note with it: mouse. The method, boiled down:
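Mouse C2C12 myoblasts co-seeded with CAI/72 trypomastigotes (10:1 parasite:cell) on compound, 48 h at 37 °C, 5% CO2. DAPI-stained fixed cells imaged; parasites per host cell normalized to 40 μM BNZ and DMSO. EC50 and C2C12 viability from dose-response curves, three biological replicates in triplicate.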

Series [2] in a line: Snapshot pharmacokinetic study in mice. The class given is in vivo, Balb/c mice. The protocol: Compound Se 2h was administered intravenously (5 mg/kg in 10% dimethyl sulfoxide, 30% propylene glycol, 30% PEG 400, and 30% of 10.0% Tween 80 in DI water) and by oral gavage (50 mg/kg in PEG 400 with 5% 1-methyl-2-pyrrolidone) in two female Balb/c mice (6 weeks old) for each group. Blood samples (∼25 μL) were collected with heparinized capillary tubes via the eye vein on mice anesthetized with isoflurane precompound administration and in the following times post administration: 30 min, 1 h, 2 h, 4 h. Samples were immediately centrifuged for plasma collection (supernatant). The animal experiment was approved by the UC San Diego IACUC committee under the protocol S14187 and follow all the ethical standards. The material was submitted for mass spectrometry quantification with provided known amounts spiked in naïve plasma for reference curve.

Another series concerns the target T1, recombinant Cz (cruzain) (Trypanosoma cruzi, UniProt P25779).
T1 construct: Cz was expressed and purified as described in da Silva et al; made in house
Description: biochemical. The note with it: for SICz: ratio between IC50 hCatL and IC50 Cz. The gist of the method:
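Cruzain (1 nM) was preincubated 10 min with compound in 0.1 M sodium acetate pH 5.5, 1 mM DTT, 0.01% Triton X-100, then 2.5 μM Z-FR-AMC (final) was added. Fluorescence (360/460 nm) was read for 10 min at 25 °C and normalized to DMSO.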

For series [3], the target named is T2, Recombinant human cathepsin L (hCatL) (Homo sapiens, UniProt P07711).
T2 construct: purchased R&D Systems 952-CY
T2 sequence (P07711 114-333): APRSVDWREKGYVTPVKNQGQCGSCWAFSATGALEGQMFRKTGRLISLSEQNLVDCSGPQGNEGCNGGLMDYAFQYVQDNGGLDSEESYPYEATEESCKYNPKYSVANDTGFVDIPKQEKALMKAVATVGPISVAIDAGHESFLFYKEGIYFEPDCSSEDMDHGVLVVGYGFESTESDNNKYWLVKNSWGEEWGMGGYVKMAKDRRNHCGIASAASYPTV
Description: Human cathepsin L inhibition assay (Z-FR-AMC substrate). It counts as biochemical. The protocol:
Compounds were screened at 10 μM. […] The experiment was performed for 30 min.
All experiments were accomplished in a 384-well black microplate, using a Synergy HTX (Biotek) plate reader at 25 °C with absorption/emission wavelengths of 360/460 nm. All assays were performed in triplicate wells and DMSO was used as a vehicle control. Enzymatic activity was measured and normalized to DMSO controls, and the inhibitor E-64 (10 μM) was used as a positive control for all assays. All experiments were performed in triplicates, with at least two independent assays (n = 6 data points). IC50 values were determined through nonlinear regression. Obtained data were treated and analyzed using GraphPad Prism 9.0 (GraphPad Software, La Jolla, California).

The next series has as its system T. cruzi CAI/72 strain. Description: Antiparasitic activity in C2C12 cells infected with T. cruzi CAI/72 (image-based assay). It counts as cell-based. Conditions: for EC50: read-out: EC50 Tc CAI/72, intracellular amastigotes in C2C12 cells, 48 h, mean of three experiments in triplicate (n = 9) ± SD.

T1 sequence (P25779 123-337 limits assumed): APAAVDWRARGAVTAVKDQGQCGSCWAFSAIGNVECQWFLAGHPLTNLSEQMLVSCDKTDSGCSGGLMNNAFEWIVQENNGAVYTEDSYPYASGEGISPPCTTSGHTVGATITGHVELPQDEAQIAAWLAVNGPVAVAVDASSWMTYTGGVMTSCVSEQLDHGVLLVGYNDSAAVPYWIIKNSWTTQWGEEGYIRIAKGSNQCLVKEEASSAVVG

`C/C(=N\Nc1nc(C)c[se]1)c1cccc([N+](=O)[O-])c1.Cl` [Se2h, (E)-4-Methyl-2-(2-(1-(3-nitrophenyl)ethylidene)hydrazineyl)-1,3-selenazole Hydrochloride] gave a viability at 48 h, 10 µM in series [1] (10 µM, < 50% viability considered cytotoxic) of more than 100%. Further, the cytotoxic concentration (CC50) at 48 h in series [1] (viability calculated at 10 μM) is more than 10000 nM. Also, the “acute toxicity in the PK study” value in series [2] (5 mg/kg intravenous and 50 mg/kg oral) is “no signs of acute toxicity”. This molecule also registered a bioavailability in series [2] (female, Balb/c, mouse, plasma, 50 mg/kg oral vs 5 mg/kg intravenous) of 82%. Moreover, the highest concentration (Cmax) at 0.5 h in series [2] (female, Balb/c, mouse, plasma, oral dose 50 mg/kg) was 2300 nM. In addition, the half-life in series [2] (female, Balb/c, mouse, plasma, other: intravenous and oral, 5 mg/kg intravenous and 50 mg/kg oral, read-out: half-life (T 1/2)) was less than 1 h. Also, the “time of C max post administration” value in series [2] (oral dose 50 mg/kg) was 30 min. For the same molecule, the “Cz inhibition (%)” value on recombinant Cz (cruzain) (10 µM) amounted to 100.09%. Also, the IC50 on recombinant Cz (cruzain) (IC50 Cz, single biological replicate (Figure 3), each of two biological replicates in triplicate) was 3.4 nM and 14.5 nM; at recombinant Cz (cruzain) (mean of two experiments in triplicate (n = 6) ± SEM, read-out: IC50 Cz) it was 8.99 ± 5.56 nM; in series [3] (each of two biological replicates in triplicate, read-out: IC50 hCatL, single biological replicate (Figure 4)), 1320 nM and 1360 nM; in series [3] (mean of two experiments in triplicate (n = 6) ± SEM, read-out: IC50 hCatL) it was 1340 ± 18 nM. In addition, the SICz at recombinant Cz (cruzain) worked out at 148.83; at recombinant Cz (cruzain) (listed as Se 2h), 149. For the same molecule, the inhibition at 10 µM was more than 85% on recombinant Cz (cruzain) (read-out: Cz inhibition (%), 10 µM); 92.2% in series [3] (10 µM); 57.7% in the series on T. cruzi CAI/72 strain (Trypanosoma cruzi, C2C12, read-out: Anti-Tc CAI/72 activity (%)). Moreover, the EC50 was 310 ± 180 nM in the series on T. cruzi CAI/72 strain and less than 1000 nM in the series with T. cruzi CAI/72 strain (listed as Se 2h).
